Source: ChEMBL document CHEMBL3885881, “DrugMatrix”

Columns and labels:
Rattus norvegicus [1] = species on record: Rattus norvegicus; assay: DrugMatrix - Regimen: Daily Repeat; type: toxicity, organism-based, Sprague-Dawley; set-up: regimen Daily Repeat, gender Male, age 6-8 weeks; conditions: in vivo, po, 200 mg/kg, […], route oral GAVAGE, dose level High, time 14 day, vehicle .5 % CMC
Rattus norvegicus [2] = species on record: Rattus norvegicus; type: toxicity, organism-based, Sprague-Dawley; conditions: in vivo, 24 h, time 1 day
Description: DrugMatrix - Regimen: Single

[3] = po, 200 mg/kg, tissue Blood, route oral GAVAGE, dose level High, vehicle .5 % CMC
[4] = po, 200 mg/kg, tissue Plasma, route oral GAVAGE, dose level High, vehicle .5 % CMC
[5] = ip, 0 mg/kg, vehicle control, tissue Blood, route intraperitoneal, dose level Control, vehicle .1 % RSA/SALINE
[6] = ip, 0 mg/kg, vehicle control, tissue Plasma, route intraperitoneal, dose level Control, vehicle .1 % RSA/SALINE
[7] = ip, 0.01 mg/kg, tissue Blood, route intraperitoneal, dose level High, vehicle .1 % RSA/SALINE
[8] = ip, 0.01 mg/kg, tissue Plasma, route intraperitoneal, dose level High, vehicle .1 % RSA/SALINE

CC(C)=C1CC[C@@H](C)CC1=O [PULEGONE]
ABSOLUTE BASOPHIL (Rattus norvegicus [1]; tissue Blood): 0 CELLS/uL | ABSOLUTE EOSINOPHIL (Rattus norvegicus [1]; tissue Blood): 211.4 CELLS/uL | ABSOLUTE LYMPHOCYTE (Rattus norvegicus [1]; tissue Blood): 21257.2 CELLS/uL | ABSOLUTE MONOCYTE (Rattus norvegicus [1]; tissue Blood): 665.8 CELLS/uL | ABSOLUTE SEGMENTED NEUTROPHIL (Rattus norvegicus [1]; tissue Blood): 3705.6 CELLS/uL | BASOPHIL (Rattus norvegicus [1]; tissue Blood): 0% | EOSINOPHIL (Rattus norvegicus [1]; tissue Blood): 0.8% | ERYTHROCYTE COUNT (Rattus norvegicus [1]; tissue Blood): 6.34 x10E6/uL | HEMATOCRIT (Rattus norvegicus [1]; tissue Blood): 37.3% | HEMOGLOBIN (Rattus norvegicus [1]; tissue Blood): 13.88 G/DL | LEUKOCYTE COUNT (Rattus norvegicus [1]; tissue Blood): 25.84 x10E3/uL | LYMPHOCYTE (Rattus norvegicus [1]; tissue Blood): 82.2% | MEAN CORPUSCULAR HEMOGLOBIN (Rattus norvegicus [1]; tissue Blood): 21.94 pg | MEAN CORPUSCULAR HEMOGLOBIN CONCENTRATION (Rattus norvegicus [1]; tissue Blood): 37.2 G/DL | MEAN CORPUSCULAR VOLUME (Rattus norvegicus [1]; tissue Blood): 58.94 fL | MONOCYTE (Rattus norvegicus [1]; tissue Blood): 2.6% | NEUTROPHIL (Rattus norvegicus [1]; tissue Blood): 14.4% | NUCLEATED RED BLOOD CELLS (Rattus norvegicus [1]; tissue Blood): 0 /100WBC | PLATELET COUNT (Rattus norvegicus [1]; tissue Blood): 1150.2 x10E3/uL | ALANINE AMINOTRANSFERASE (Rattus norvegicus [1]; tissue Plasma): 78.8 u/L | ALBUMIN (Rattus norvegicus [1]; tissue Plasma): 4.54 G/DL | ALKALINE PHOSPHATASE (Rattus norvegicus [1]; tissue Plasma): 518 u/L | ASPARTATE AMINOTRANSFERASE (Rattus norvegicus [1]; tissue Plasma): 93.8 u/L | BLOOD UREA NITROGEN (Rattus norvegicus [1]; tissue Plasma): 14.2 mg/dL | CARBON DIOXIDE (Rattus norvegicus [1]; tissue Plasma): 27.4 mmol/L | CHLORIDE (Rattus norvegicus [1]; tissue Plasma): 102.2 MEQ/L | CHOLESTEROL (Rattus norvegicus [1]; tissue Plasma): 65 mg/dL | CREATININE (Rattus norvegicus [1]; tissue Plasma): 0.18 mg/dL | GLUCOSE (Rattus norvegicus [1]; tissue Plasma): 128.2 mg/dL | LACTATE DEHYDROGENASE (Rattus norvegicus [1]; tissue Plasma): 147 u/L | LIPASE (Rattus norvegicus [1]; tissue Plasma): 11 u/L | PHOSPHORUS (Rattus norvegicus [1]; tissue Plasma): 12.52 mg/dL | POTASSIUM (Rattus norvegicus [1]; tissue Plasma): 7 MEQ/L | SODIUM (Rattus norvegicus [1]; tissue Plasma): 148.6 MEQ/L | TOTAL BILIRUBIN (Rattus norvegicus [1]; tissue Plasma): 0.32 mg/dL | TOTAL PROTEIN (Rattus norvegicus [1]; tissue Plasma): 6.52 G/DL | URIC ACID (Rattus norvegicus [1]; tissue Plasma): 2.08 mg/dL | ABSOLUTE EOSINOPHIL (Rattus norvegicus [2]; [3]): 46 CELLS/uL | ABSOLUTE LYMPHOCYTE (Rattus norvegicus [2]; [3]): 13023.67 CELLS/uL | ABSOLUTE MONOCYTE (Rattus norvegicus [2]; [3]): 245.33 CELLS/uL | ABSOLUTE SEGMENTED NEUTROPHIL (Rattus norvegicus [2]; [3]): 1251.67 CELLS/uL | BASOPHIL (Rattus norvegicus [2]; [3]): 0% | EOSINOPHIL (Rattus norvegicus [2]; [3]): 0.33% | ERYTHROCYTE COUNT (Rattus norvegicus [2]; [3]): 5.98 x10E6/uL | HEMATOCRIT (Rattus norvegicus [2]; [3]): 37.73% | HEMOGLOBIN (Rattus norvegicus [2]; [3]): 13.9 G/DL | LEUKOCYTE COUNT (Rattus norvegicus [2]; [3]): 14.57 x10E3/uL | LYMPHOCYTE (Rattus norvegicus [2]; [3]): 90% | MEAN CORPUSCULAR HEMOGLOBIN (Rattus norvegicus [2]; [3]): 23.43 pg | MEAN CORPUSCULAR HEMOGLOBIN CONCENTRATION (Rattus norvegicus [2]; [3]): 37 G/DL | MEAN CORPUSCULAR VOLUME (Rattus norvegicus [2]; [3]): 63.4 fL | MONOCYTE (Rattus norvegicus [2]; [3]): 1.67% | NEUTROPHIL (Rattus norvegicus [2]; [3]): 8% | NUCLEATED RED BLOOD CELLS (Rattus norvegicus [2]; [3]): 0 /100WBC | PLATELET COUNT (Rattus norvegicus [2]; [3]): 961.67 x10E3/uL | ALANINE AMINOTRANSFERASE (Rattus norvegicus [2]; [4]): 52.67 u/L | ALBUMIN (Rattus norvegicus [2]; [4]): 4.3 G/DL | ALKALINE PHOSPHATASE (Rattus norvegicus [2]; [4]): 476.33 u/L | ASPARTATE AMINOTRANSFERASE (Rattus norvegicus [2]; [4]): 110 u/L | BLOOD UREA NITROGEN (Rattus norvegicus [2]; [4]): 12.33 mg/dL | CARBON DIOXIDE (Rattus norvegicus [2]; [4]): 23.67 mmol/L | CHLORIDE (Rattus norvegicus [2]; [4]): 103.5 MEQ/L | CHOLESTEROL (Rattus norvegicus [2]; [4]): 77.67 mg/dL | CREATININE (Rattus norvegicus [2]; [4]): 0.14 mg/dL | GLUCOSE (Rattus norvegicus [2]; [4]): 133.33 mg/dL | LACTATE DEHYDROGENASE (Rattus norvegicus [2]; [4]): 244 u/L | LIPASE (Rattus norvegicus [2]; [4]): 10 u/L | PHOSPHORUS (Rattus norvegicus [2]; [4]): 12.8 mg/dL | POTASSIUM (Rattus norvegicus [2]; [4]): 6.49 MEQ/L | SODIUM (Rattus norvegicus [2]; [4]): 142.65 MEQ/L | TOTAL BILIRUBIN (Rattus norvegicus [2]; [4]): 0.23 mg/dL | TOTAL PROTEIN (Rattus norvegicus [2]; [4]): 6 G/DL | URIC ACID (Rattus norvegicus [2]; [4]): 1.8 mg/dL

INTERLEUKIN 1 BETA, RAT
ABSOLUTE EOSINOPHIL (Rattus norvegicus [2]; [5]): 109.33 CELLS/uL | ABSOLUTE LYMPHOCYTE (Rattus norvegicus [2]; [5]): 13180.67 CELLS/uL | ABSOLUTE MONOCYTE (Rattus norvegicus [2]; [5]): 354 CELLS/uL | ABSOLUTE SEGMENTED NEUTROPHIL (Rattus norvegicus [2]; [5]): 1756 CELLS/uL | BASOPHIL (Rattus norvegicus [2]; [5]): 0% | EOSINOPHIL (Rattus norvegicus [2]; [5]): 0.67% | ERYTHROCYTE COUNT (Rattus norvegicus [2]; [5]): 5.38 x10E6/uL | HEMOGLOBIN (Rattus norvegicus [2]; [5]): 12.57 G/DL | LEUKOCYTE COUNT (Rattus norvegicus [2]; [5]): 15.4 x10E3/uL | LYMPHOCYTE (Rattus norvegicus [2]; [5]): 85% | MEAN CORPUSCULAR HEMOGLOBIN (Rattus norvegicus [2]; [5]): 23.37 pg | MEAN CORPUSCULAR HEMOGLOBIN CONCENTRATION (Rattus norvegicus [2]; [5]): 38.3 G/DL | NEUTROPHIL (Rattus norvegicus [2]; [5]): 12% | NUCLEATED RED BLOOD CELLS (Rattus norvegicus [2]; [5]): 0 /100WBC | PLATELET COUNT (Rattus norvegicus [2]; [5]): 832.33 x10E3/uL | ALANINE AMINOTRANSFERASE (Rattus norvegicus [2]; [6]): 37.33 u/L | ALBUMIN (Rattus norvegicus [2]; [6]): 4 G/DL | ALKALINE PHOSPHATASE (Rattus norvegicus [2]; [6]): 344.67 u/L | ASPARTATE AMINOTRANSFERASE (Rattus norvegicus [2]; [6]): 69.33 u/L | BLOOD UREA NITROGEN (Rattus norvegicus [2]; [6]): 13.67 mg/dL | CARBON DIOXIDE (Rattus norvegicus [2]; [6]): 28.33 mmol/L | CHLORIDE (Rattus norvegicus [2]; [6]): 99.67 MEQ/L | CHOLESTEROL (Rattus norvegicus [2]; [6]): 73.67 mg/dL | CREATINE PHOSPHOKINASE (Rattus norvegicus [2]; [6]): 270 u/L | CREATININE (Rattus norvegicus [2]; [6]): 0.19 mg/dL | GLUCOSE (Rattus norvegicus [2]; [6]): 176.33 mg/dL | LACTATE DEHYDROGENASE (Rattus norvegicus [2]; [6]): 160 u/L | PHOSPHORUS (Rattus norvegicus [2]; [6]): 13.47 mg/dL | POTASSIUM (Rattus norvegicus [2]; [6]): 6.77 MEQ/L | TOTAL BILIRUBIN (Rattus norvegicus [2]; [6]): 0.13 mg/dL | TOTAL PROTEIN (Rattus norvegicus [2]; [6]): 6.07 G/DL | URIC ACID (Rattus norvegicus [2]; [6]): 1.87 mg/dL | ABSOLUTE EOSINOPHIL (Rattus norvegicus [2]; [7]): 0 CELLS/uL | ABSOLUTE LYMPHOCYTE (Rattus norvegicus [2]; [7]): 13348 CELLS/uL | ABSOLUTE MONOCYTE (Rattus norvegicus [2]; [7]): 227.67 CELLS/uL | ABSOLUTE SEGMENTED NEUTROPHIL (Rattus norvegicus [2]; [7]): 3524.33 CELLS/uL | BASOPHIL (Rattus norvegicus [2]; [7]): 0% | EOSINOPHIL (Rattus norvegicus [2]; [7]): 0% | ERYTHROCYTE COUNT (Rattus norvegicus [2]; [7]): 5.11 x10E6/uL | HEMATOCRIT (Rattus norvegicus [2]; [7]): 31.33% | HEMOGLOBIN (Rattus norvegicus [2]; [7]): 12.13 G/DL | LEUKOCYTE COUNT (Rattus norvegicus [2]; [7]): 17.1 x10E3/uL | LYMPHOCYTE (Rattus norvegicus [2]; [7]): 78% | MEAN CORPUSCULAR HEMOGLOBIN CONCENTRATION (Rattus norvegicus [2]; [7]): 38.73 G/DL | MEAN CORPUSCULAR VOLUME (Rattus norvegicus [2]; [7]): 61.37 fL | NEUTROPHIL (Rattus norvegicus [2]; [7]): 20.67% | NUCLEATED RED BLOOD CELLS (Rattus norvegicus [2]; [7]): 0.33 /100WBC | PLATELET COUNT (Rattus norvegicus [2]; [7]): 933.33 x10E3/uL | ALANINE AMINOTRANSFERASE (Rattus norvegicus [2]; [8]): 30.33 u/L | ALKALINE PHOSPHATASE (Rattus norvegicus [2]; [8]): 386.33 u/L | ASPARTATE AMINOTRANSFERASE (Rattus norvegicus [2]; [8]): 62.67 u/L | CARBON DIOXIDE (Rattus norvegicus [2]; [8]): 25.33 mmol/L | CHOLESTEROL (Rattus norvegicus [2]; [8]): 66.67 mg/dL | CREATINE PHOSPHOKINASE (Rattus norvegicus [2]; [8]): 237 u/L | CREATININE (Rattus norvegicus [2]; [8]): 0.18 mg/dL | GLUCOSE (Rattus norvegicus [2]; [8]): 176.33 mg/dL | LACTATE DEHYDROGENASE (Rattus norvegicus [2]; [8]): 101 u/L | PHOSPHORUS (Rattus norvegicus [2]; [8]): 12.13 mg/dL | POTASSIUM (Rattus norvegicus [2]; [8]): 6.6 MEQ/L | TOTAL BILIRUBIN (Rattus norvegicus [2]; [8]): 0.13 mg/dL | TOTAL PROTEIN (Rattus norvegicus [2]; [8]): 6.07 G/DL
